Measurements reported in patent US20060105013A1, “Osteopontin-coated surfaces and methods of use” (priority 2000, published 2006).

System: HOS cells
Assay: Western blot of osteopontin and BSP secreted into extracellular matrix by HOS cells on coated Ti disks
Assay type: cell-based, human
Experimental: Osteopontin and BSP were extracted from the extracellular matrix of HOS cells cultured on Ti disks or Ti disks coated with the recombinant Opn with lysis buffer (20 mM phosphate buffer, pH, 7.2, containing 150 mM NaCI, 0.1% SDS, 1 mM phenylmethylsulfonyl fluoride, 5 mM benzamidine, 0.1 mM e-amino caproic acid, 0.1 b-hydroxy mercuribenzoate, 0.1 mM pyrophosphate, 1 mM sodium fluoride, 1 mM sodium orthovanadate and 10 mM EDTA). Samples were then processed for Gel electrophoresis.
Western blot analysis: Cell layer proteins and conditioned media was electrophoresed in 10% SDS-polyacrylamide slab gels at 150 volts for 4 h. For Western blot analysis resolved proteins in gels were transferred by semi-dry blotting onto nitrocellulose membranes (Schleicher & Schuell, Keene, N H), gel transfers were carried out for 90 min. at 12 V in 0.025 M Tris-glycine buffer, pH 8.2, containing 20% methanol and 0.01% Tween 20 and 10% nonfat dry milk, then incubated with rabbit anti-mouse osteopontin (Ashkar S, et al., New York Academy of Science 760:296-298, 1995) in 20 mM Phosphate buffer, pH 7.4, containing 150 mM NaCL, 0.1% Tween 20 and 1% nonfat dry milk. […] Nonspecific interaction was assessed by the interaction of the primary and secondary antibodies with rabbit serum albumin. […]

rhOPN: human recombinant phosphorylated form of osteopontin
OPN secretion into the extracellular matrix (Western blot) (HOS cells on coated Ti disks vs uncoated titanium controls): increased secretion of OPN | BSP extracellular matrix secretion (Western blot) (HOS cells on rhOPN coated implants, control groups did not express BSP): less marked than the production of osteopontin
